Source: ChEMBL document CHEMBL1145603, “Evaluation of antiangiogenic activity of azumamides by the in vitro vascular organization model using mouse induced pluripotent stem (iPS) cells” (Bioorg Med Chem Lett, 2008)

Key:
Histone deacetylase 1 = Histone deacetylase 1 (Homo sapiens, UniProt Q13547); assay: Inhibition of human HDAC1 expressed in 293T cells; type: cell-based
Histone deacetylase 4 = Histone deacetylase 4 (Homo sapiens, UniProt P56524); assay: Inhibition of human HDAC4 expressed in 293T cells; type: cell-based
Chain of Histone deacetylase 4 (P56524 whole entry): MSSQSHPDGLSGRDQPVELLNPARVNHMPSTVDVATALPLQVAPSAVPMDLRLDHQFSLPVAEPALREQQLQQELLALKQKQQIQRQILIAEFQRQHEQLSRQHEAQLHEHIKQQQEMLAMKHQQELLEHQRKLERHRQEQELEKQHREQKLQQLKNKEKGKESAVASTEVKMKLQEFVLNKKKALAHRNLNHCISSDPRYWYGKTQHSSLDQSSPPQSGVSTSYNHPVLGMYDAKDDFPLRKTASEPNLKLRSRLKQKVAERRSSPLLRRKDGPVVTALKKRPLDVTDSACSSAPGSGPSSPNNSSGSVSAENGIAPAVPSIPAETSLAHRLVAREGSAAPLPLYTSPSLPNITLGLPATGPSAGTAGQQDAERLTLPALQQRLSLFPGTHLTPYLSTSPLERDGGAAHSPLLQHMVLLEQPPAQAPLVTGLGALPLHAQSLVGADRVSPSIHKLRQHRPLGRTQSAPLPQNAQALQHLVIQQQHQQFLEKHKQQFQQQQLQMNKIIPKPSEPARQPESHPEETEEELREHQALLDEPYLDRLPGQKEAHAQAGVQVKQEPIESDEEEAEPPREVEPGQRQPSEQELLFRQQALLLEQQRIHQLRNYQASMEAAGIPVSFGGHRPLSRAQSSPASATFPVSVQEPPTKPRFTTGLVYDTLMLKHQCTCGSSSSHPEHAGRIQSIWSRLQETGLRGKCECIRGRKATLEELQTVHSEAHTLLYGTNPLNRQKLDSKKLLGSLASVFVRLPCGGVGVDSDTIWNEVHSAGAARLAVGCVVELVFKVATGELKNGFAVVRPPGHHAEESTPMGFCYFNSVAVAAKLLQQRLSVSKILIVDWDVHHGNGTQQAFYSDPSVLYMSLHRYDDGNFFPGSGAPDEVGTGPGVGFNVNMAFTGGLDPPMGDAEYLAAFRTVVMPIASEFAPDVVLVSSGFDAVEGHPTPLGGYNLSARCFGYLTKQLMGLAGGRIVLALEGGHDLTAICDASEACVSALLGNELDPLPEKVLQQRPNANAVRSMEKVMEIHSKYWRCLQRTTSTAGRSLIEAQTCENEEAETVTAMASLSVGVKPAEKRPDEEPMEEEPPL

[1] = biological target: T1, Protein deacetylase HDAC6 (Homo sapiens, UniProt Q9UBN7); assay: Inhibition of human HDAC6 expressed in 293T cells; type: cell-based
T1 sequence (Q9UBN7 whole entry): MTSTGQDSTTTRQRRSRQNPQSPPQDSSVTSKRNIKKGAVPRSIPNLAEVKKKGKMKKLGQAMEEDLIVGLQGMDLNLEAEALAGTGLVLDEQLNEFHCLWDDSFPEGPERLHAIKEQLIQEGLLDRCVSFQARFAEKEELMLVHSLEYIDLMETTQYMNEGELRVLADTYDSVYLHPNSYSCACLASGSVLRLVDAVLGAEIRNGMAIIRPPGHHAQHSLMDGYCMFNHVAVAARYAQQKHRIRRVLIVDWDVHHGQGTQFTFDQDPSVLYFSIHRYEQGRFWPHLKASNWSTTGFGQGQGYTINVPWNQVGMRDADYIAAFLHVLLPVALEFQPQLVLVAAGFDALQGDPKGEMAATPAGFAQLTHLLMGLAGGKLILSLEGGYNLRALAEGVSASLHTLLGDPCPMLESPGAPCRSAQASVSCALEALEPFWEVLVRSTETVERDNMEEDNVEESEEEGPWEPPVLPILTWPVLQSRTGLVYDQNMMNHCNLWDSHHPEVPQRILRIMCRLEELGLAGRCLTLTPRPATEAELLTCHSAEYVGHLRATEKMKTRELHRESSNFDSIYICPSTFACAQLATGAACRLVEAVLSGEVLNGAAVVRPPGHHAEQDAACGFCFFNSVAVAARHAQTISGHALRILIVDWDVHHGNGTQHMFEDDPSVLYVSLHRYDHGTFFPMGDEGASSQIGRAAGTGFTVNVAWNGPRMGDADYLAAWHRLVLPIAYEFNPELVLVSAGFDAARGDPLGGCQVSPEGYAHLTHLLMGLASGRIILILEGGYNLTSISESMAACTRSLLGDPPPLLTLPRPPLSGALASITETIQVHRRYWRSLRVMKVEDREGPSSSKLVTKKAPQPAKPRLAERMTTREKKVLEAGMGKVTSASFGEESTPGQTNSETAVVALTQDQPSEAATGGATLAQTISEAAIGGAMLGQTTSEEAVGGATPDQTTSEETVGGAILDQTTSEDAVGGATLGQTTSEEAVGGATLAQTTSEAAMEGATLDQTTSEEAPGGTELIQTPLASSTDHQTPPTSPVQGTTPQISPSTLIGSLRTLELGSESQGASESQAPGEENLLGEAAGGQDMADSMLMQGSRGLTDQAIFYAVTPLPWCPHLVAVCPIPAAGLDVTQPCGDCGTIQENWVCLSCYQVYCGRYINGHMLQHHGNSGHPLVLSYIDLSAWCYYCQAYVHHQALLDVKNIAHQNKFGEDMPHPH

HeLa = assay: Induction of p21 expression in human HeLa cells after 24 hrs; type: functional
Mus musculus = organism: Mus musculus; assay: Antiangiogenic activity in mouse induced pluripotent stem cells; type: functional

Chain of Histone deacetylase 1 (Q13547 whole entry): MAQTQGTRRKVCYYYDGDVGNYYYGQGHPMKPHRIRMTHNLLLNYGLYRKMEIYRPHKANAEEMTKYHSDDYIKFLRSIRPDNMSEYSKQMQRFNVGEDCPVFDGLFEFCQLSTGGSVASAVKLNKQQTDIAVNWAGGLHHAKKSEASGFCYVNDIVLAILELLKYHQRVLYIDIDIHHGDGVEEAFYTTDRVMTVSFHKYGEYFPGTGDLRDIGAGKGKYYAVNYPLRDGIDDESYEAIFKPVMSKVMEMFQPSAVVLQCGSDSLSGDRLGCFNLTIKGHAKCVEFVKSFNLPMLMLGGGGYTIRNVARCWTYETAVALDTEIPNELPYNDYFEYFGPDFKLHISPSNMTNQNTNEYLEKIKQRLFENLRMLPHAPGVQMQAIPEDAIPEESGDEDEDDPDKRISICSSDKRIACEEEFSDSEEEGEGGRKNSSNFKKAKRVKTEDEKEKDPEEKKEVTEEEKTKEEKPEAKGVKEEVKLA

SMILES | IC50 (Histone deacetylase 1) [µM] | IC50 (Histone deacetylase 4) [µM] | IC50 [1] [µM] | EC1000 (HeLa) [µM] | Activity (Mus musculus)
CC(C)[C@H]1NC(=O)[C@@H](C)[C@@H](C/C=C\CCC(N)=O)NC(=O)[C@@H](Cc2ccc(O)cc2)NC(=O)[C@@H](C)NC1=O [AZUMAMIDE B] | 1.83 | 3.66 | > 50 | >25 | 
CC(C)[C@H]1NC(=O)[C@@H](C)[C@@H](C/C=C\CCC(=O)O)NC(=O)[C@@H](Cc2ccc(O)cc2)NC(=O)[C@@H](C)NC1=O [AZUMAMIDE C] | 1.17 | 3.16 | > 50 | >25 | 
C[C@@H]1C(=O)N[C@H](C)C(=O)N[C@H](C)C(=O)N[C@H](Cc2ccccc2)C(=O)N[C@@H]1C/C=C\CCC(N)=O [AZUMAMIDE D] | > 50 | > 50 | > 50 | >25 | 
CC(/C=C/C(=O)NO)=C\[C@@H](C)C(=O)c1ccc(N(C)C)cc1 [TRICHOSTATIN] |  |  |  | 0.0115 | 

Second part, led by results:

IC50 (Histone deacetylase 1) [µM] | IC50 (Histone deacetylase 4) [µM] | IC50 [1] [µM] | SMILES | EC1000 (HeLa) [µM] | Activity (Mus musculus)
> 50 | > 50 | > 50 | CC(C)[C@H]1NC(=O)[C@@H](C)[C@@H](C/C=C\CCC(N)=O)NC(=O)[C@@H](Cc2ccccc2)NC(=O)[C@@H](C)NC1=O [AZUMAMIDE A] | >25 | 
 | 2.28 | > 50 | CC(C)[C@H]1NC(=O)[C@@H](C)[C@@H](C/C=C\CCC(=O)O)NC(=O)[C@@H](Cc2ccccc2)NC(=O)[C@@H](C)NC1=O [AZUMAMIDE E] | 17 | Dose-dependent effect
